The text below walks through data of PubChem BioAssay AID493130 (Broad Institute, 2011).

Records with an inconclusive call do not appear. Active and inactive are the calls of the source.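 The calls were made as follows: active = signal-lowering compounds whose fitted half-maximal concentration is at most ten times their highest tested dose; inconclusive = flat fit between -30 and -70%, or poor fit; inactive = flat within 30%, signal rising, or potency beyond limit.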

The target in one test is POS-1 (Caenorhabditis elegans) binding to mex-3 RNA. The experiment in a line: inhibitors of POS-1/mex-3 RNA binding, dose response, counter-screen for MEX-5 RNA-binding inhibitor project, biochemical, fluorescence polarization, cherry-picked samples, set 2 (AID 493130).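 Also: POS-1 as maltose binding protein fusion made in E. coli with FITC RNA.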 The note with it: POS-1/mex-3 RNA fluorescence polarization, 1 h. (In general: Counterscreens check selectivity or assay interference.)
As for `O=C(N/N=C/C1C(=O)NC(=S)N(c2ccccc2)C1=O)c1cc(Br)c(O)c(Br)c1` (configuration not stated), the AC50 is 7.64 µM.

For the molecule `Cc1oc2c(cc(NS(=O)(=O)c3ccc(C(C)C)cc3)c3ccccc32)c1C(=O)O`, the AC50 was 10.4 µM.

As to `NS(=O)(=O)c1ccc(N=Nc2c(=O)[nH]n3c(=O)c4c([nH]c23)CCCC4)cc1`, the half-maximal activity concentration (AC50) was 0.251 µM.

Turning to `COC(=O)C1=COC(C)C2CN3CCc4c([nH]c5ccccc45)C3CC12` (configuration not stated), the AC50 was 7.17 µM.

In the case of `CCn1c(SCc2nc3sc(C(=O)O)c(C)c3c(=O)[nH]2)nc2ccccc21`, the AC50 is 10.3 µM.

For the molecule `O=C1c2ccccc2C(=O)N1/N=C/c1ccc(O)c(O)c1O`, the AC50 is 2.31 µM.

Consider `O=C(O[C@@H]1OC2COC(=O)c3cc(O)c(O)c(O)c3-c3c(cc(O)c(O)c3O)C(=O)O[C@@H]([C@H]1O)[C@@H]2O)c1cc(O)c(O)c(O)c1`, for which the AC50 is 2.27 µM.

For `COc1ccc(Cn2c(O)c(/C=N/NC(=O)c3ccccc3O)c(=O)[nH]c2=O)cc1`, the concentration at half-maximal activity (AC50) was 6.22 µM.

Regarding `C#CCN1C(=O)S/C(=C\c2cc3c(cc2OC)OCO3)C1=O`, the AC50 was 8.97 µM.

Consider `O=c1[nH]c(/C=C/c2cccc3ccccc23)nc2ccccc12`, for which the AC50 is > 10 µM (inactive).

For `CCCCN1C(=O)C2Cc3c([nH]c4ccccc34)CN2C1=S` (configuration not stated), the AC50 was 8.04 µM.

Still in this test, the particulars now being: POS-1/mex-3 RNA fluorescence polarization, 1 h; at 10 µM (top of the series).
Regarding `CC(C)C(=O)OCC(=O)Nc1ccc2c(c1)CCC2`, the “activity change, negative = inhibition” value is “inactive”.

As for `O=C(/C=C/c1ccc(O)c(O)c1)OC1C(O)CC(OC(=O)/C=C/c2ccc(O)c(O)c2)(C(=O)O)CC1O` (configuration not stated), the “activity change, negative = inhibition” value was “inactive”.

Turning to `Cc1c(NC(=O)c2ccc(=O)oc2)c(=O)n(-c2ccccc2)n1C`, the “activity change, negative = inhibition” value is “inactive”.

Take `CCOC(=O)Cc1csc(NC(=O)c2sc3nc4ccc(CC)cc4cc3c2N)n1`: the “activity change, negative = inhibition” value was “inactive”.

On to `CN(N)c1ccc2c(C(F)(F)F)cc(C(F)(F)F)nc2n1`, for which the “activity change, negative = inhibition” value was “inactive”.

In the case of `O=[N+]([O-])c1ccc(C2=CSC3=NCCN23)cc1`, the “activity change, negative = inhibition” value is “inactive”.

As to `CC(=O)Nc1ccc2c(c1)C(=O)N(c1cccc(C)c1)C2=O`, the “activity change, negative = inhibition” value is “inactive”.

As for `CC(=O)Nc1ccc(-c2csc(Nc3cccc(C)n3)n2)cc1`, the “activity change, negative = inhibition” value was “inactive”.

With `COC(=O)C1=C(C)N(c2ccc(C)c(C)c2)/C(=C/c2cccs2)C1=O`, the “activity change, negative = inhibition” value is “inactive”.

As for `CCCCNc1c(N)n(CCCC)c(=O)[nH]c1=O`, the “activity change, negative = inhibition” value was “inactive”.

`CN1C(=O)N(C)C(c2cccc([N+](=O)[O-])c2)C2=C1CCCC2=O` (configuration not stated): the “activity change, negative = inhibition” value is “inactive”.

In the case of `COc1ccc(/C=C/C(=O)c2cc(Cl)cc(Cl)c2O)c(OC)c1`, the “activity change, negative = inhibition” value was “inactive”.

Turning to `O=C(O)CCN1C(=O)/C(=C\c2ccc(OCc3ccccc3)c(OCc3ccccc3)c2)SC1=S`, the “activity change, negative = inhibition” value is “inactive”.

For `Cc1ccc(Nc2nc(-c3ccc(C)cc3)c(CC(=O)O)s2)cc1`, the “activity change, negative = inhibition” value was “inactive”.

For the molecule `CCOc1cc(/C=N/NC(=O)N/N=C/c2ccc(O)c(OCC)c2)ccc1O`, the “activity change, negative = inhibition” value was “inactive”.

With `CCOc1c(O)ccc(/C=C2\SC(=S)NC2=O)c1[N+](=O)[O-]`, the “activity change, negative = inhibition” value was “inactive”.

Turning to `O=C(N/N=C/c1c(O)ccc2ccccc12)c1ccc[n+](CCO)c1`, the “activity change, negative = inhibition” value is “inactive”.

On to `O=C1OC(C(=O)O)Cc2ccccc21` (configuration not stated), for which the “activity change, negative = inhibition” value is “inactive”.

With `CCOc1ccc(/C=N/n2c(C)nc3ccccc3c2=O)cc1`, the “activity change, negative = inhibition” value was “inactive”.

As for `C=CCn1c(O)c(N=NC(=S)Nc2cccc(C)c2)c2ccccc21`, the “activity change, negative = inhibition” value is “inactive”.

Regarding `COc1cc(/C=N/NC(=O)CNS(=O)(=O)c2ccc(C)cc2)cc(OC)c1OC`, the “activity change, negative = inhibition” value is “inactive”.

For the molecule `O=C(O)c1ccc2c(c1)ncn2C1CCCCC1`, the “activity change, negative = inhibition” value is “inactive”.

For `COc1cccc(OCC(=O)NNC(=O)c2cnccn2)c1`, the “activity change, negative = inhibition” value is “inactive”.

In the case of `O=c1[nH]nc(CNc2ccc(OC(F)(F)F)cc2)c2ccccc12`, the “activity change, negative = inhibition” value is “inactive”.

Turning to `Cc1sc2ncnc(N/N=C/c3ccccc3O)c2c1C`, the “activity change, negative = inhibition” value is “inactive”.

With `CCCCN(C(=O)c1ccc([N+](=O)[O-])o1)c1c(N)n(CCCC)c(=O)[nH]c1=O`, the “activity change, negative = inhibition” value was “inactive”.

For the molecule `CCOc1cc(/C=N/Nc2nc(=O)[nH]nc2C)ccc1O`, the “activity change, negative = inhibition” value is “inactive”.

For the molecule `Cc1cc(C(=O)N/N=C/c2ccc(-c3ccc([N+](=O)[O-])cc3Cl)o2)n[nH]1`, the “activity change, negative = inhibition” value is “inactive”.

Regarding `OC(CNC1CCCC1)COc1ccccc1Br` (configuration not stated), the “activity change, negative = inhibition” value was “inactive”.

Turning to `N=c1c(S(=O)(=O)c2ccc(Cl)cc2)cc2c(=O)n3ccccc3nc2n1CC1CCCO1` (configuration not stated), the “activity change, negative = inhibition” value was “inactive”.

`O=S(=O)(O)c1cc(O)c2c(O)c(N=Nc3cc(Cl)ccc3O)c(S(=O)(=O)O)cc2c1`: the “activity change, negative = inhibition” value is “inactive”.

As for `O=c1cc(-c2ccccc2)oc2ccc(O)cc12`, the “activity change, negative = inhibition” value is “inactive”.

Regarding `COC(=O)c1cccc(-c2ccc(C(c3c(C)[nH][nH]c3=O)c3c(C)[nH][nH]c3=O)o2)c1`, the “activity change, negative = inhibition” value was “inactive”.

Regarding `CNC(=O)/C(C#N)=C/c1ccc(-c2ccc(Cl)cc2)o1`, the “activity change, negative = inhibition” value is “inactive”.

On to `O=c1oc2cc([N+](=O)[O-])ccc2nc1/C=C(\O)c1cccc(Br)c1`, for which the “activity change, negative = inhibition” value was “inactive”.

Regarding `Nc1ccc2oc(-c3ccccc3Cl)cc(=O)c2c1O`, the “activity change, negative = inhibition” value is “inactive”.

As to `COc1ccc(N/C=C/C(=O)c2ccc3c(c2)OCO3)cc1OC`, the “activity change, negative = inhibition” value was “inactive”.

Turning to `Nc1cnccc1C(=O)O`, the “activity change, negative = inhibition” value was “inactive”.

As for `CCOc1ccc(/C=C2/C(=O)N(c3ccc(OC)cc3)C(=S)N2CC(=O)OC)cc1OCC`, the “activity change, negative = inhibition” value was “inactive”.

For the molecule `CCN(CC)c1ccc(/C=N/N2CCN(c3ccccc3OC)CC2)cc1`, the “activity change, negative = inhibition” value is “inactive”.

As to `O=C(O)COc1ccc(Br)cc1C(c1c(C(=O)O)[nH]c2ccccc12)c1c(C(=O)O)[nH]c2ccccc12`, the “activity change, negative = inhibition” value is “inactive”.

With `O=C1N=C(N2C=CC(=C3C=CNC=C3)C=C2)/C(=C/N=NC(=O)c2ccccc2)S1`, the “activity change, negative = inhibition” value was “inactive”.

Regarding `O=C(C[n+]1ccc(C(=O)N/N=C/c2ccc(OCc3ccccc3)cc2)cc1)c1ccccc1`, the “activity change, negative = inhibition” value is “inactive”.

Take `CN1CCCc2cc(C=O)ccc21`: the “activity change, negative = inhibition” value is “inactive”.

Take `CCOC(=O)NC(=O)/C(C#N)=C\Nc1sccc1C(=O)OC`: the “activity change, negative = inhibition” value was “inactive”.

For `CCN(CC)CCOc1ccc2c(c1)C(=NNC(=O)c1ccccn1)c1cc(OCCN(CC)CC)ccc1-2`, the “activity change, negative = inhibition” value is “inactive”.

Consider `CC(=O)Nc1ccc(/C=N/NC(=O)CNS(=O)(=O)c2ccccc2)cc1`, for which the “activity change, negative = inhibition” value was “inactive”.

With `CC(C)c1cc[n+](-c2nc([O-])sc2C=O)cc1`, the “activity change, negative = inhibition” value is “inactive”.

As to `CCS(=O)(=O)c1ccc2oc(=O)c(/C=C(\O)c3ccc(Cl)cc3)nc2c1`, the “activity change, negative = inhibition” value is “inactive”.

Take `Oc1cc2c(c(Cl)c1O)CCNCC2c1ccccc1` (configuration not stated): the “activity change, negative = inhibition” value is “inactive”.

`COc1ccc(NCc2n[nH]c(=O)c3ccccc23)cc1`: the “activity change, negative = inhibition” value is “inactive”.

For the molecule `Cc1ccccc1C(=O)N=c1ccn(-c2nc3ccccc3nc2NS(=O)(=O)c2ccccc2)cc1`, the “activity change, negative = inhibition” value was “inactive”.

Take `Cn1c(O)c(/C=N/NC(=O)c2cc3ccccc3cc2O)c2ccccc21`: the “activity change, negative = inhibition” value was “inactive”.

With `COc1cc(N2CCCC2)c(OC)cc1/C=C(/C#N)c1cccc(Br)c1`, the “activity change, negative = inhibition” value was “inactive”.

As to `COC(=O)COc1ccc2c(c1)O/C(=C\c1cccc([N+](=O)[O-])c1)C2=O`, the “activity change, negative = inhibition” value was “inactive”.

Consider `CC(C)(C)N(CC#CCC(O)(c1ccccc1)c1ccccc1)CCO`, for which the “activity change, negative = inhibition” value was “inactive”.

Turning to `O=c1[nH]nc(CNc2ccc(Cl)cc2Cl)c2ccccc12`, the “activity change, negative = inhibition” value is “inactive”.

On to `CC(C#N)(Nc1ccc(Cl)cc1)c1cccnc1` (configuration not stated), for which the “activity change, negative = inhibition” value is “inactive”.

Consider `CCc1ccc(/C=C2\Oc3cc(OS(C)(=O)=O)ccc3C2=O)cc1`, for which the “activity change, negative = inhibition” value is “inactive”.

In the case of `Cc1ccc(C(=O)N/C(=C\c2ccc(-c3cccc([N+](=O)[O-])c3)o2)C(=O)NCCCN(C)C)cc1`, the “activity change, negative = inhibition” value was “inactive”.

For the molecule `COc1ccc(NC(=O)/C=C/c2cccc(C(F)(F)F)c2)cn1`, the “activity change, negative = inhibition” value was “inactive”.

As for `CCOC(=O)/C=c1\s/c(=C\c2ccc(-c3ccccc3)cc2)c(=O)n1CC(=O)NCc1ccc2c(c1)OCO2`, the “activity change, negative = inhibition” value was “inactive”.

Regarding `COc1cccc(NCc2cc(=O)oc3cc(C)c(C(C)C)cc23)c1`, the “activity change, negative = inhibition” value was “inactive”.

Regarding `Cc1c(C=O)c(Cl)n(C)c(=O)c1C#N`, the “activity change, negative = inhibition” value is “inactive”.

For `Oc1ccc(/C=N/Nc2ccc(Cl)nn2)c(O)c1O`, the “activity change, negative = inhibition” value was “inactive”.

`CCc1nnc(NC(=O)CCN2C(=O)/C(=C/c3cc(OC)c(OC)c(OC)c3)SC2=S)s1`: the “activity change, negative = inhibition” value is “inactive”.

Regarding `COCCN1CCC(CNCc2cn(-c3cc(C)ccc3C)nc2-c2ccccc2)C1` (configuration not stated), the “activity change, negative = inhibition” value was “inactive”.

As for `Cc1ccc2c(c1Cl)NC(C(=O)O)C1CC(Sc3ccccc3[N+](=O)[O-])C(Cl)C21` (configuration not stated), the “activity change, negative = inhibition” value is “inactive”.

Consider `Cn1nc(C(=O)NNC(=O)c2ccc(Cl)cc2)ccc1=O`, for which the “activity change, negative = inhibition” value was “inactive”.

In the case of `Cc1cc(/C=C2\SC(=S)N(Cc3ccco3)C2=O)c(C)n1-c1ccccc1`, the “activity change, negative = inhibition” value was “inactive”.

For the molecule `O=C(O)CCCN1C(=O)/C(=C\c2ccc(-c3nc4ccccc4s3)o2)SC1=S`, the “activity change, negative = inhibition” value is “inactive”.

For orientation: AC50 means the concentration at which the activity in the assay is half-maximal.
